Source: US20160058738A1, “PHARMACEUTICAL COMPOSITION FOR PREVENTING OR TREATING OVARY GRANULOSA CELL TUMORS CONTAINING GLYCOGEN SYNTHASE KINASE-3 BETA INHIBITOR AS ACTIVE INGREDIENT, AND FUNCTIONAL HEALTH FOOD COMPOSITION” (CHUNG-ANG UNIVERSITY INDUSTRY-ACADEMIC COOPERATION …, priority 2013, published 2016)

Legend:
[1] = system: cells in which the FOXL2 protein was overexpressed; test: Experiment for cell growth rate; type: cell-based, human; conditions: for cell growth rate of the C134W mutant: cells overexpressing FOXL2 C134W mutant
Experimental: After the cells in which the FOXL2 protein was overexpressed were treated with a GSK3beta inhibitor (AR-A014418), a cell growth rate according to time was measured, and the result is shown in FIG. 13.

[2] = system: KGN cells stably expressing FOXL2; test: Efficacy on tumor induced by KGN cells in nude mice; type: in vivo, BALB/c-nu mice; conditions: 2 mg/kg injected directly into tumor-induced region 10 times for two weeks, starting three weeks after cell injection
Text: 6-week-old mature male BALB/c-nu mice were purchased from Central Laboratory Animal, Inc., and allowed for one week to be adapted to environments of the breeding facility and the laboratory in the Chung-Ang University Laboratory Animal Research Center to ensure that the mice had no general symptoms, prior to being used for the experiment. The animals were housed at a density of five mice per polycarbonate cage, and solid food for laboratory animals and water were freely provided. The environments for the breeding laboratory including a temperature, humidity, a ventilation cycle, a light/dark cycle, and illuminance were constantly maintained, and all the experiments were conducted in accordance with the regulation of the Chung-Ang University Animal Research Ethics Committee.
3×10^7 of KGN cells stably expressing FOXL2 were subcutaneously injected into each mouse to induce a tumor. Three weeks after the injection, the GSK3beta inhibitor (AR-A014418) was directly injected into a tumor-induced region at 2 mg/kg 10 times for two weeks and then a tumor size was measured, and the result is shown in FIG. 14.

FOXL2 protein = test: Experiment for protein stability (cyclohexamide chase, western blotting); type: cell-based, human; conditions: FOXL2-overexpressing cells, then 10 μg cyclohexamide, sampled at 0, 6, 12, 24 hours
Experimental: The cultured cells were harvested, and a protein was extracted from the cells using a Nonidet P-40 (NP-40) solution. For quantification of the extracted protein, a Bicinchoninic acid (BCA)™ protein assay was performed. The quantified protein was transferred to a polyvinylidene fluoride (PVDF) membrane by SDS-PAGE electrophoresis, and incubated with an antibody for each protein to be detected. Afterward, the proteins were detected using secondary antibodies and a ChemDoc system. To confirm whether the effect of decreasing the cell viability by inducing the activity of a specific promoter such as TNFR1, FAS, Caspase8 and p21 induces regulation of FOXL2 protein stability by the phosphorylation of the FOXL2 S33 residue, cells in which a FOXL2 protein was overexpressed were treated with a GSK3beta inhibitor (SB 216763) and expressed, treated with 10 μg of cyclohexamide which is a protein synthesis inhibitor, and then sampled at 0, 6, 12, and 24 hours to perform western blotting, and the result is shown in FIG. 12.

[3] = system: phosphorylation of the FOXL2 S33 residue; test: Western blotting of the phosphorylation of the FOXL2 S33 residue after kinase inhibitor treatment; type: cell-based, human; conditions: 10 μM inhibitor, KGN cells overexpressing FOXL2 WT
Experimental: The cultured cells were harvested, and a protein was extracted from the cells using a Nonidet P-40 (NP-40) solution. For quantification of the extracted protein, a Bicinchoninic acid (BCA)™ protein assay was performed. The quantified protein was transferred to a polyvinylidene fluoride (PVDF) membrane by SDS-PAGE electrophoresis, and incubated with an antibody for each protein to be detected. Afterward, the proteins were detected using secondary antibodies and a ChemDoc system.
While the FOXL2 WT was overexpressed in the KGN cells, the cells were treated with 10 μM of the inhibitor of each kinase, cultured for 18 hours and sampled, and then a change in phosphorylation was measured by performing western blotting. Here, the change in phosphorylation was measured using an antibody specifically binding to a peptide consisting of an amino acid of SEQ. ID.
To confirm whether an inhibitory effect of GSK3beta on the FOXL2 S33 residue is a GSK3beta-specific effect, cells in which FOXL2 WT was overexpressed were treated with 10 μM each of AR-A014418 and TWS1119, which are two different GSK3beta inhibitors, sampled, and analyzed by western blotting. Here, AR-A014418 contains a compound represented by Formula 2.

| Structure (SMILES) | cell growth rate of the C134W mutant [1] | size of the tumor induced in the ovarian GCT cells [2] | FOXL2 protein stability (FOXL2 protein) | phosphorylation of the FOXL2 S33 residue [3] | phosphorylation of the FOXL2 S33 residue ([3]; listed as Formula 1) | cell growth rate ([1]; FOXL2-overexpressing cells, growth rate according to time) | cell growth rate of the C134W mutant ([1]; listed as Formula 2) | size of the tumor induced in the ovarian GCT cells ([2]; listed as Formula 2) | phosphorylation of the FOXL2 S33 residue ([3]; listed as Formula 2) |
| --- | --- | --- | --- | --- | --- | --- | --- | --- | --- |
| Cn1cc(C2=C(c3ccc(Cl)cc3Cl)C(=O)NC2=O)c2ccccc21 [SB 216763, 3-(2,4-Dichlorophenyl)-4-(1-methyl-1H-indol-3-yl)-1H-pyrrole-2,5-dione] | decreased | decreased | increased | reduced | decreased | – | – | – | – |
| Nc1cccc(-c2cc3c(Oc4cccc(O)c4)ncnc3[nH]2)c1 [TWS1119] | – | – | – | reduced | – | – | – | – | – |
| COc1ccc(CNC(=O)Nc2ncc([N+](=O)[O-])s2)cc1 [AR-A014418, N-[(4-Methoxyphenyl)Methyl]-N′-(5-nitro-thiazol-2-yl)urea] | remarkably decreased | remarkably decreased | – | reduced | – | decrease | decreased | decreased | decreased |
